Assay results from PMC9174266, “Isolation, characterization and biological activities of betulin from Acacia nilotica bark” (Scientific Reports, 2022).

How the values were obtained:
COX-1 = target: T1, COX-1 (Ovis aries, UniProt P05979); assay: COX (ovine) inhibitor screening assay kit; […] inhibition at […]; assay type: biochemical
T1 construct: gene PTGS1
T1 sequence (P05979 25-600): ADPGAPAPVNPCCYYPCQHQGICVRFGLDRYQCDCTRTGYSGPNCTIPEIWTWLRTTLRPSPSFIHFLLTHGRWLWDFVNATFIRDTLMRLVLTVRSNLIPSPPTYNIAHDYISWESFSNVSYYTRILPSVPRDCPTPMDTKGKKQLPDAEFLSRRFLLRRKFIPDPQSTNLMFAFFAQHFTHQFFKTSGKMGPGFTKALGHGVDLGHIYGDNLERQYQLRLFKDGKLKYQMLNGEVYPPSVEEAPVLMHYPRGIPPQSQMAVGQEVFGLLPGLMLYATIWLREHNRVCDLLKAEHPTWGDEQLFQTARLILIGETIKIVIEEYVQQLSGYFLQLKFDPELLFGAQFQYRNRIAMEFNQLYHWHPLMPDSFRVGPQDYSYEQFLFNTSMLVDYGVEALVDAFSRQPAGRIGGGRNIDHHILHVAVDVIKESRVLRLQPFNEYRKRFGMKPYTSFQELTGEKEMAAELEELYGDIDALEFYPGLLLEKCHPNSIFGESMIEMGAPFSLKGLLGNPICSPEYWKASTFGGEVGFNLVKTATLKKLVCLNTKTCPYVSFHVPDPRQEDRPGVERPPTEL

COX-2 = target: T2, COX-2 (Ovis aries, UniProt P79208); assay: COX (ovine) inhibitor screening assay kit, PGF2α produced by SnCl2 reduction of COX-derived PGH2, read at […] nm; assay type: biochemical
T2 construct: gene PTGS2
T2 sequence (P79208 17-603): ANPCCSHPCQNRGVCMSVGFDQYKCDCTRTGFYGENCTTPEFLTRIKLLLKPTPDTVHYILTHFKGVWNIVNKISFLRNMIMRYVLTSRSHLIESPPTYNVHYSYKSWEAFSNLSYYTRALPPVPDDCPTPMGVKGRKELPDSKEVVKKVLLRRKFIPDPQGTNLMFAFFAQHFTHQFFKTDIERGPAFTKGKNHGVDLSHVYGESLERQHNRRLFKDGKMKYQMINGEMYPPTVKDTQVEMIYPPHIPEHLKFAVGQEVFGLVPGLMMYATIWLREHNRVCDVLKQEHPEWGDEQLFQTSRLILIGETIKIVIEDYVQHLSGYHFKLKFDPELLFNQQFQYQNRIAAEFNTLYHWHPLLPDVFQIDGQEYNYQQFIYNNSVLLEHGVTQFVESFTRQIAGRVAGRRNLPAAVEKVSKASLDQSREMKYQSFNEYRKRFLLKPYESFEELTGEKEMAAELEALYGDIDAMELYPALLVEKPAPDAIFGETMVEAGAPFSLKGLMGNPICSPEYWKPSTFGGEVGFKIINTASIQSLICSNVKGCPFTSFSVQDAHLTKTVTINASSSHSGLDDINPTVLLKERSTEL

In the case of `C=C(C)[C@@H]1CC[C@]2(CO)CC[C@]3(C)[C@H](CC[C@@H]4[C@@]5(C)CC[C@H](O)C(C)(C)[C@@H]5CC[C@]43C)[C@@H]12` [AN-10], the IC50 (COX-1) is reported as greater than 10 µM and the IC50 (COX-2) is reported as less than 1 µM.
